Assay results as given in paper PMC11337160, “Chirality and pH Influence the Self-Assembly of Antimicrobial Lipopeptides with Diverse Nanostructures” (ACS Applied Bio Materials, 2024).
Converted amounts (≈) assume the structure as drawn. Non-standard residues stand in square brackets, D forms with d. Residues, ends and D or L forms follow the SMILES beside them. *: point of attachment. Palmitoyl = CCCCCCCCCCCCCCCC(=O)*

Tests used:
[1] = system: Staphylococcus aureus ATCC 12600; assay type: cell-based; details: ATCC 12600, 18 h
Protocol: (§1) Two Gram-negative strains (Escherichia coli K12 and Salmonella enterica NCTC 5188) and one Gram-positive strain (Staphylococcus aureus ATCC 12600) were employed to evaluate the potential bactericidal activity of tested lipopeptides. A single colony from each strain, pre-streaked onto an LB (lysogeny broth) agar plate, was inoculated into 5 mL of LB broth and incubated at 37 °C with shaking (250 rpm) for 18 h. Then, the bacterial culture was adjusted to 5 × 10^6 CFU mL^–1 mid-log phase in Mueller-Hinton broth (MHB), and aliquots were transferred to individual wells of a U-bottom 96-well microplate with increasing concentrations of lipopeptides (0–1000 μg mL^–1). Included positive and negative controls consisted of 0.97 μg mL^–1 ciprofloxacin or 1× PBS in MHB, respectively. After 18 h of incubation at 37 °C, 10 μL from each well was spot-inoculated onto LB agar and plates were further incubated at 37 °C overnight to assess the MBC which refers to the lowest concentration of an antibacterial agent required to kill bacteria (here denoted by colony growth on the plate).
(§2) Figure 9 Determination of MBC of lipopeptides P1, P1D, P2, and P2D. 10 μL aliquots from broth microdilution plates were spot-inoculated onto LB agar plates. The MBC refers to the lowest concentration of an antibacterial agent required to completely kill bacteria shown by the lack of colony formation. […] Positive control (+) 0.97 μg mL^–1 ciprofloxacin; negative control (−) 1X PBS.

[2] = system: Escherichia coli K12; assay type: cell-based; details: K12, 18 h
Protocol: as §1, §2

[3] = system: S. enterica; details: MIC values were reported previously; cited from earlier work
Source text: Table 1 Antimicrobial, Cytotoxic, and Selectivity Index Activities of Lipopeptides ^a | column: MIC (μg/mL) / S. enterica

[4] = system: Salmonella enterica NCTC 5188; test: Minimum bactericidal concentration (MBC); assay type: cell-based; details: 5 × 10^6 CFU/mL in MHB, lipopeptide 0-1000 μg/mL, 18 h at 37 °C, 10 μL spot-inoculated onto LB agar, overnight 37 °C
Protocol: as §1, §2

[5] = system: S. aureus; details: MIC values were reported previously; cited from earlier work
Source text: Table 1 Antimicrobial, Cytotoxic, and Selectivity Index Activities of Lipopeptides ^a | column: MIC (μg/mL) / S. aureus

[6] = system: E. coli; details: MIC values were reported previously; cited from earlier work
Source text: Table 1 Antimicrobial, Cytotoxic, and Selectivity Index Activities of Lipopeptides ^a | column: MIC (μg/mL) / E. coli

[7] = system: E. coli; test: Live/Dead staining, membrane integrity (epifluorescence); assay type: cell-based; details: two-fold MIC of lipopeptide, 1 h at 37 °C, compared to P1 and P1D
Source text: A bacteria Live/Dead staining kit (PromoKine) was employed to gain insight into the possible membrane disruption activity of tested lipopeptides. In summary, we used two color fluorescence dyes with varying ability to cross the cytoplasmatic membranes of bacteria. DMAO is a green-fluorescent nucleic acid dye which stains the cell membranes of both live and dead bacteria, while the red fluorescing EthD-III dye selectively stains dead bacteria with compromised membranes. With appropriately calculated volumes of dyes, live viable bacterial cells fluoresce green whilst dead compromised cells fluoresce red. For this assessment, a total of 5 × 10^6 mL^–1 exponential phase bacterial cells were incubated with two-fold MIC of lipopeptides for 1 h at 37 °C. Negative and positive controls consisted respectively of the addition of PBS and Triton-X100 (1%) to replace lipopeptides. Afterwards, the sample was centrifuged at 1000g for 10 min. The pellet was resuspended in 100 μL of 0.85% buffered NaCl with the epifluorescence dyes, following the kit instructions, and incubated for 15 min at room temperature. The samples were examined under a Nikon Eclipse Ti2 inverted microscope.
Figure 10 Membrane permeabilization of E. coli (A) and S. aureus (B) was observed through epifluorescence microscopy. […]

[8] = Cryo-TEM imaging of self-assembled nanostructures; assay type: physicochemical; details: 1 wt % aqueous solution, pH 8
Protocol: The Cryo-TEM imaging was performed using a field emission cryo-electron microscope (JEOL JEM-3200FSC), operating at 200 kV. To take the TEM images bright field mode with a zero-loss energy filter (omega type) was used, with a slit width of 20 eV. A Gatan UltraScan 4000 CCD camera was used to record the micrographs. During the entire experiment, the sample was kept at −187 °C. An automated FEI Vitrobot device was used to blot and vitrify samples on Quantifoil 3.5:1 holey carbon copper grids with a hole size of 3.5 μm. Before taking the images, grids were first plasma cleaned using a Gatan Solarus 9500 plasma cleaner, followed by transferring to the environmental chamber of a FEI Vitrobot at room temperature and 100% humidity. For sample spotting on the grid, 3 μL of sample solution was taken and spread on the grid. It was blotted twice and then vitrified in a 1:1 mixture of liquid ethane and propane at a temperature of −180 °C. The grids with vitrified sample solution were maintained at liquid nitrogen temperature and then cryo-transferred to the microscope.
The self-assembled nanostructure of these lipopeptides at acidic pH was investigated at the lower pH of 4.6 in our recent paper,[43] and here we report the unexpected observation of distinct self-assembled nanostructure of these lipopeptides at a higher pH. For cryo-TEM imaging at basic pH, 1 wt % aqueous solution of lipopeptides at pH 8 were prepared, this concentration being above the measured CAC values for these lipopeptides. […] In contrast, the TEM images of all the lipopeptides at pH 4.6 show small spherical micelles with a mean diameter of 4–9 nm (as reported previously,[43] with additional images in Figure S5).

[9] = Critical aggregation concentration (CAC) by Thioflavin T fluorescence; assay type: physicochemical; details: ThT fluorescence probe (5 × 10^–4 wt % ThT), aqueous solution pH 8, 25 °C, λex 440 nm, emission 487 nm, breakpoint of I/I0 versus concentration
Protocol: For the fluorescence experiments, a Varian Cary Eclipse spectrofluorometer was used, and the samples were placed in 4 mm inner-width quartz cuvettes. For experimental settings, excitation and emission bandwidths of 2.5 nm were used. All the experiments were carried out at 25 °C. The CAC value for all the samples was determined by fluorescence experiments with Thioflavin T (ThT). ThT is well known to bind to amyloid fibrils, and can be used to determine CAC values.[44]−[46] First a stock solution (5 × 10^–4 wt %) ThT solution was prepared and using this solution, various concentrations of samples were prepared. The scan of the fluorescence spectra (λex = 440 nm) was taken from 460 to 670 nm.
The CAC value of the samples was calculated by plotting I/I0 versus concentration (in wt %). Here I0 is the maximum intensity for the control, i.e., ThT solution without the sample, and I signifies the maximum fluorescence intensity of ThT at a given concentration of lipopeptide.
To determine the CAC values of these lipopeptides, fluorescence probe assays using Thioflavin T (ThT) were performed, this dye being sensitive to the formation of β-sheet structures.[44]−[46] Emission spectra of the four lipopeptides were collected at different concentrations after excitation at 440 nm. At higher concentrations, an emission peak at 487 nm is visible. […] The lower CAC values for P2 and P2D are due to the higher hydrophobicity of tryptophan compared to tyrosine. […] However, since aggregation at the two different pH values gives rise to distinct nanostructures, this may be coincidental.

| SMILES | MBC S. aureus [1] [µg/mL] | MBC E. coli [2] [µg/mL] | MIC S. enterica [3] [µg/mL] | MBC S. enterica [4] [µg/mL] | MIC S. aureus [5] [µg/mL] | MIC E. coli [6] [µg/mL] | formation of bacterial cell aggregates, E. coli [7] | mean diameter of nanostructure (cryo-TEM) [8] [nm] | self-assembled nanostructure (cryo-TEM) [8] | CAC (critical aggregation concentration) [9] [wt %] |
| --- | --- | --- | --- | --- | --- | --- | --- | --- | --- | --- |
| CCCCCCCCCCCCCCCC(=O)N[C@@H](Cc1c[nH]c2ccccc12)C(=O)N[C@@H](CCCCN)C(=O)N[C@@H](CCCCN)C(N)=O [P2] (Palmitoyl-Trp-Lys-Lys-NH2) | 250 (≈ 358 µM) | 250 (≈ 358 µM) | 62.5 to 250 | 250 (≈ 358 µM) | 31.25 to 62.5 | 15.63 to 62.5 | cell aggregates (clusters) was observed | 6.4 ± 2 | long intertwined nanofibers | 0.026 ± 0.004 |
| CCCCCCCCCCCCCCCC(=O)N[C@@H](Cc1ccc(O)cc1)C(=O)N[C@@H](CCCCN)C(=O)N[C@@H](CCCCN)C(N)=O [P1] (Palmitoyl-Tyr-Lys-Lys-NH2) | 62.5 (≈ 92.6 µM) | 62.5 (≈ 92.6 µM) | 31.25 to 62.5 | 125 (≈ 185 µM) | 31.25 to 62.5 | 15.63 to 31.25 |  | 11.7 ± 3.3 | long intertwined nanofibers | 0.040 ± 0.003 |
| CCCCCCCCCCCCCCCC(=O)N[C@@H](Cc1c[nH]c2ccccc12)C(=O)N[C@H](CCCCN)C(=O)N[C@H](CCCCN)C(N)=O [P2D] (Palmitoyl-Trp-[dK]-[dK]-NH2) | 62.5 (≈ 89.5 µM) | 62.5 (≈ 89.5 µM) | 62.5 (≈ 89.5 µM) | 125 (≈ 179 µM) | 31.25 to 62.5 | 31.25 to 62.5 | cell aggregates (clusters) was observed | 32.8 ± 4.5 | nanotube structures | 0.026 ± 0.004 |
| CCCCCCCCCCCCCCCC(=O)N[C@@H](Cc1ccc(O)cc1)C(=O)N[C@H](CCCCN)C(=O)N[C@H](CCCCN)C(N)=O [P1D] (Palmitoyl-Tyr-[dK]-[dK]-NH2) | 250 (≈ 370 µM) | 62.5 (≈ 92.6 µM) | 31.25 (≈ 46.3 µM) | 125 (≈ 185 µM) | 31.25 (≈ 46.3 µM) | 15.63 to 31.25 |  |  | twisted nanotape structures of variable width | 0.034 ± 0.005 |
